# Laboratory results: US9598433B2, “Hepatitis C virus inhibitors” (BRISTOL-MYERS SQUIBB COMPANY, priority 2012, dated 2017)
# Where two headings read alike, the source gives them in different places.
# Columns and labels:
# [1] = tested on: HCV genotype 1a (H77 strain) replicon in HUH-7 cells; test: HCV replicon luciferase reporter assay, genotype 1a; type: cell-based; settings: Hepatitis C virus, 72 h, genotype 1a replicon, 3 days incubation
# Text: (§1) An HCV replicon whole cell system was established as described by Lohmann V, Korner F, Koch J, Herian U, Theilmann L, Bartenschlager R., Science 285(5424):110-3 (1999) and modified to introduce a luciferase reporter, as first described by Krieger et al (Krieger N, Lohmann V, and Bartenschlager R, J. Virol. 75(10):4614-4624 (2001)). CDNA encoding a humanized form of the Renilla luciferase gene and a linker sequence fused directly to the 3′-end of the luciferase gene were introduced into the replicon construct using an Ascl restriction site located in core, directly upstream of the neomycin marker gene. The adaptive mutation at position 1179 (serine to isoleucine) was also introduced (Blight K J, Kolykhalov, A A, Rice, C M, Science 290(5498):1972-1974). A stable cell line constitutively expressing this HCV replicon construct was generated by first linearizing plasmid DNAs with ScaI. RNA transcripts were synthesized in vitro using the T7 MegaScript transcription kit (Ambion, Austin, Tex.) according to manufacturer's directions. In vitro transcripts of the cDNA were transfected into the human hepatoma cell line, HUH-7. […] Resulting cell lines were characterized for positive and negative strand RNA production and protein production over time.
# A stable HCV replicon luciferase reporter cell line representing the genotype 1a H77 strain (Yanagi M, Purcell R H, Emerson S U, et al. Transcripts from a single full-length cDNA clone of hepatitis C virus are infectious when directly transfected into the liver of a chimpanzee. Proc Natl Acad Sci USA 1997; 94(16):8738-8743) was generated as described previously for the genotype 1b(Con1) replicon luciferase cell line. The replicon construct was modified by introducing mutations were introduced into the genes encoding the NS3 helicase domain (proline replaced by leucine at position 1496) and NS5A (serine to isoleucine at position 2204) to improve replication in cell culture.
# (§2) HCV replicon luciferase assays were developed to monitor the inhibitory effects of compounds described in the disclosure on HCV genotypes 1a and 1b viral replication. HUH-7 cells, constitutively expressing the HCV replicon, were grown in Dulbecco's Modified Eagle Media (DMEM) (Gibco-BRL) containing 10% Fetal calf serum (FCS) (Sigma) and 1 mg/mL G418 (Gibco-BRL). Compounds were serially diluted 3 folds in DMSO for a twenty-point titration and subsequently transferred to sterile 384-well tissue-culture treated plates (Corning cat #3571). The plates were then seeded with 50 μL of cells at a density of 3.0×10^3 cells/well in DMEM containing 4% FCS (final DMSO concentration at 0.5%). After 3 days incubation at 37° C., cells were analyzed for Renilla Luciferase activity using the EnduRen as substrate (Promega cat #E6485). The EnduRen substrate was diluted in DMEM and then added to the plates to a final concentration of 7.5 μM. The plates were incubated for 2 hrs at 37° C. and then read immediately for 30 seconds with Viewlux Imager (PerkinElmer) using a luminescence program. To assess cytotoxicity of compounds, CC50 values were generated by multiplexing the EnduRen-containing plates with Cell Titer-Blue (Promega, cat # G8082). Cell-Titer Blue (3 μL) was added to each well and incubated for 8 hrs at 37° C. The fluorescence signal from each well was read, with an excitation wavelength at 525/10 nm and an emission wavelength of 598/10 nm, using the Viewlux Imager.
# (§3) The EC50 values for compounds were calculated by using a four-parameter logistic equation: y=A+((B−A)/(1+((C/x)^D))), where A and B denotes minimal and maximal % inhibition, respectively, C is the EC50, D is the hill slope and x represents compound concentration.
# [2] = tested on: HCV genotype 1b (Con1) replicon in HUH-7 cells; test: HCV replicon luciferase reporter assay, genotype 1b; type: cell-based; settings: Hepatitis C virus, 72 h, genotype 1b replicon, 3 days incubation
# Text: as §1, §2, §3
Structure (SMILES),EC50 ([1]; read-out: LE_1a (EC50)) [nM],"EC50 ([1]; read-out: LE_1a (EC50, range)) [nM]",EC50 ([2]; read-out: LE_1b (EC50)) [nM],"EC50 ([2]; read-out: LE_1b (EC50, range)) [nM]"
CC[C@@H]1O[C@H](C)CC/C=C\[C@@H]2C[C@@]2(C(=O)NS(=O)(=O)C2(C)CC2)NC(=O)[C@@H]2C[C@@H](Oc3nccc4cc(OC)c(F)cc34)CN2C(=O)[C@H]1NC(=O)OC(C)(C)C(F)(F)F [Compound 1001],1.26,1.01 to 5,0.47,0.1 to 0.5
"CC[C@@H]1O[C@H](C)CC/C=C\[C@@H]2C[C@@]2(C(=O)NS(=O)(=O)C2(C)CC2)NC(=O)[C@@H]2C[C@@H](Oc3nc(OC)cc4cc(OC)ccc34)CN2C(=O)[C@H]1NC(=O)OC(C)(C)C(F)(F)F [Compound 1002, 1,1,1-trifluoro-2-methylpropan-2-yl ((2R,6S,7S,9R,13aS,14aR,16aS,Z)-2-((3,6-dimethoxyisoquinolin-1-yl)oxy)-7-ethyl-9-methyl-14a-(((1-methylcyclopropyl)sulfonyl)carbamoyl)-5,16-dioxo-2,3,5,6,7,9,10,11,13a,14,14a,15,16,16a-tetradecahydro-1H-cyclopropa[i]pyrrolo[1,2-e][1,5,8]oxadiazacyclopentadecin-6-yl)carbamate]",–,0.51 to 1,–,0.1 to 0.5
CC[C@@H]1O[C@H](C)CC/C=C\[C@@H]2C[C@@]2(C(=O)NS(=O)(=O)C2(C)CC2)NC(=O)[C@@H]2C[C@@H](Oc3ncc(OC)c4ccccc34)CN2C(=O)[C@H]1NC(=O)OC(C)(C)C(F)(F)F [Compound 1003],–,0.51 to 1,–,0.1 to 0.5
"CC[C@@H]1O[C@H](C)CC/C=C\[C@@H]2C[C@@]2(C(=O)NS(=O)(=O)C2CC2)NC(=O)[C@@H]2C[C@@H](Oc3ncc(OC)c4ccccc34)CN2C(=O)[C@H]1NC(=O)OC(C)(C)C(F)(F)F [Compound 1004, 1,1,1-trifluoro-2-methylpropan-2-yl ((2R,6S,7S,9R,13aS,14aR,16aS,Z)-14a-((cyclopropylsulfonyl)carbamoyl)-7-ethyl-2-((4-methoxyisoquinolin-1-yl)oxy)-9-methyl-5,16-dioxo-2,3,5,6,7,9,10,11,13a,14,14a,15,16,16a-tetradecahydro-1H-cyclopropa[i]pyrrolo[1,2-e][1,5,8]oxadiazacyclopentadecin-6-yl)carbamate]",–,0.51 to 1,–,0.1 to 0.5
CC[C@@H]1OCCC/C=C\[C@@H]2C[C@@]2(C(=O)NS(=O)(=O)C2(C)CC2)NC(=O)[C@@H]2C[C@@H](Oc3nccc4cc(OC)ccc34)CN2C(=O)[C@H]1NC(=O)OC(C)(C)C(F)(F)F [Compound 1005],–,1.01 to 5,–,0.51 to 1
CC[C@@H]1O[C@H](C)CC/C=C\[C@@H]2C[C@@]2(C(=O)NS(=O)(=O)C2(C)CC2)NC(=O)[C@@H]2C[C@@H](Oc3nccc4cc(OC)ccc34)CN2C(=O)[C@H]1NC(=O)OC(C)(C)C(F)(F)F [Compound 1006],–,1.01 to 5,–,0.1 to 0.5
"CC[C@@H]1O[C@H](C)CC/C=C\[C@@H]2C[C@@]2(C(=O)NS(=O)(=O)C2CC2)NC(=O)[C@@H]2C[C@@H](Oc3nccc4cc(OC)ccc34)CN2C(=O)[C@H]1NC(=O)OC(C)(C)C(F)(F)F [Compound 1007, 1,1,1-trifluoro-2-methylpropan-2-yl ((2R,6S,7S,9R,13aS,14aR,16aS,Z)-14a-((cyclopropylsulfonyl)carbamoyl)-7-ethyl-2-((6-methoxyisoquinolin-1-yl)oxy)-9-methyl-5,16-dioxo-2,3,5,6,7,9,10,11,13a,14,14a,15,16,16a-tetradecahydro-1H-cyclopropa[i]pyrrolo[1,2-e][1,5,8]oxadiazacyclopentadecin-6-yl)carbamate]",–,1.01 to 5,–,0.51 to 1
"CC[C@@H]1O[C@H](C)CC/C=C\[C@@H]2C[C@@]2(C(=O)NS(=O)(=O)C2CC2)NC(=O)[C@@H]2C[C@@H](Oc3nc(OC)cc4cc(OC)ccc34)CN2C(=O)[C@H]1NC(=O)OC(C)(C)C(F)(F)F [Compound 1008, 1,1,1-trifluoro-2-methylpropan-2-yl ((2R,6S,7S,9R,13aS,14aR,16aS,Z)-14a-((cyclopropylsulfonyl)carbamoyl)-2-((3,6-dimethoxyisoquinolin-1-yl)oxy)-7-ethyl-9-methyl-5,16-dioxo-2,3,5,6,7,9,10,11,13a,14,14a,15,16,16a-tetradecahydro-1H-cyclopropa[i]pyrrolo[1,2-e][1,5,8]oxadiazacyclopentadecin-6-yl)carbamate]",0.41,0.1 to 0.5,0.28,0.1 to 0.5
CC[C@@H]1OCCC/C=C\[C@@H]2C[C@@]2(C(=O)NS(=O)(=O)C2(C)CC2)NC(=O)[C@@H]2C[C@@H](Oc3nccc4cc(OC)c(F)cc34)CN2C(=O)[C@H]1NC(=O)OC(C)(C)C(F)(F)F [Compound 1009],–,1.01 to 5,–,1.01 to 5
"CC[C@@H]1OCCC/C=C\[C@@H]2C[C@@]2(C(=O)NS(=O)(=O)C2(C)CC2)NC(=O)[C@@H]2C[C@@H](Oc3nc(OC)cc4cc(OC)ccc34)CN2C(=O)[C@H]1NC(=O)OC(C)(C)C(F)(F)F [Compound 1010, 1,1,1-trifluoro-2-methylpropan-2-yl ((2R,6S,7S,13aS,14aR,16aS,Z)-2-((3,6-dimethoxyisoquinolin-1-yl)oxy)-7-ethyl-14a-(((1-methylcyclopropyl)sulfonyl)carbamoyl)-5,16-dioxo-2,3,5,6,7,9,10,11,13a,14,14a,15,16,16a-tetradecahydro-1H-cyclopropa[i]pyrrolo[1,2-e][1,5,8]oxadiazacyclopentadecin-6-yl)carbamate]",–,0.51 to 1,–,1.01 to 5
CC[C@@H]1OCCC/C=C\[C@@H]2C[C@@]2(C(=O)NS(=O)(=O)C2(C)CC2)NC(=O)[C@@H]2C[C@@H](Oc3ncc(OC)c4ccccc34)CN2C(=O)[C@H]1NC(=O)OC(C)(C)C(F)(F)F [Compound 1011],–,0.51 to 1,–,0.51 to 1
CC[C@@H]1O[C@H](C)CC/C=C\[C@@H]2C[C@@]2(C(=O)NS(=O)(=O)C2(CF)CC2)NC(=O)[C@@H]2C[C@@H](Oc3nccc4cc(OC)c(F)cc34)CN2C(=O)[C@H]1NC(=O)OC(C)(C)C(F)(F)F [Compound 1012],–,1.01 to 5,–,1.01 to 5
"CC[C@@H]1O[C@H](C)CC/C=C\[C@@H]2C[C@@]2(C(=O)NS(=O)(=O)C2(CF)CC2)NC(=O)[C@@H]2C[C@@H](Oc3nc(OC)cc4cc(OC)ccc34)CN2C(=O)[C@H]1NC(=O)OC(C)(C)C(F)(F)F [Compound 1013, 1,1,1-trifluoro-2-methylpropan-2-yl ((2R,6S,7S,9R,13aS,14aR,16aS,Z)-2-((3,6-dimethoxyisoquinolin-1-yl)oxy)-7-ethyl-14a-(((1-(fluoromethyl)cyclopropyl)sulfonyl)carbamoyl)-9-methyl-5,16-dioxo-2,3,5,6,7,9,10,11,13a,14,14a,15,16,16a-tetradecahydro-1H-cyclopropa[i]pyrrolo[1,2-e][1,5,8]oxadiazacyclopentadecin-6-yl)carbamate]",–,1.01 to 5,–,1.01 to 5
CC[C@@H]1O[C@H](C)CC/C=C\[C@@H]2C[C@@]2(C(=O)NS(=O)(=O)C2(CF)CC2)NC(=O)[C@@H]2C[C@@H](Oc3ncc(OC)c4ccccc34)CN2C(=O)[C@H]1NC(=O)OC(C)(C)C(F)(F)F [Compound 1014],–,1.01 to 5,–,1.01 to 5
